ChEMBL document CHEMBL1126161, “3,4-Dihydroquinolin-2(1H)-ones as combined inhibitors of thromboxane A2 synthase and cAMP phosphodiesterase” (J Med Chem, 1992)

Tests used:
Rattus norvegicus [1] = assay: Antihypertensive activity in conscious spontaneously hypertensive rat (SHR), percent change in heart rate (beats/min) after 8 hr at 0.3 mg/kg peroral dose; format: functional; settings: route oral
Rattus norvegicus [2] = assay: Antihypertensive activity in conscious spontaneously hypertensive rat (SHR), percent change in Systolic blood pressure (SBP) at 0.3 mg/kg peroral dose after 8 hr; format: functional; settings: route oral
Rattus norvegicus [3] = assay: Antihypertensive activity in conscious spontaneously hypertensive rat (SHR), percent change in heart rate (beats/min) after 8 hr at 1 mg/kg peroral dose; format: functional; settings: route oral
[4] = target: T1, Thromboxane-A synthase (Homo sapiens) (UniProt P24557); assay: Effect of TXA2 synthase inhibitor (compound) on serum TXB2 level in rats at 50 mg/kg po, after 2 hr; format: functional, organism-based; set-up: dose 50 mg/kg; settings: Rattus norvegicus, target entry is the homologue from another species
T1 sequence (whole entry): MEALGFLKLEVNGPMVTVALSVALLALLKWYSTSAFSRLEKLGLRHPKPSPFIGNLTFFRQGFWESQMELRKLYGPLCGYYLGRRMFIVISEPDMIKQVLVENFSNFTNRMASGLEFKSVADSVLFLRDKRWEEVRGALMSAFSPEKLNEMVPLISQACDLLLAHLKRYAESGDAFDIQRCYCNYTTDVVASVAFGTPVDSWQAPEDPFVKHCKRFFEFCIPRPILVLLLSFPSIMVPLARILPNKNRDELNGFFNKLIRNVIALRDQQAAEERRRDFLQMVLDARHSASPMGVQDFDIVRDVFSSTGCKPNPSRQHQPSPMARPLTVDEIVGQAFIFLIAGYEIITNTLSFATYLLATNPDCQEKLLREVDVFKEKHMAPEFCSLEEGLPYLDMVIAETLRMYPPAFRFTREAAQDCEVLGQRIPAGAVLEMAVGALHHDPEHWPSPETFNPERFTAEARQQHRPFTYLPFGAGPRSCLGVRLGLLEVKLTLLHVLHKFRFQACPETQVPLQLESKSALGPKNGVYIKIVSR

Rattus norvegicus [5] = assay: Ex vivo inhibition of blood platelet aggregation in rats at 50 mg/kg peroral dose after 5 hr; format: functional; settings: route oral
Mus musculus [6] = assay: Time course of protection against mortality in a pulmonary thromboembolism model in mice after -5 hr at 10 mg/kg; format: functional
Rattus norvegicus [7] = assay: Antihypertensive activity in conscious spontaneously hypertensive rat (SHR), percent change in heart rate (beats/min) after 12 hr at 3 mg/kg peroral dose; format: functional; settings: route oral
Rattus norvegicus [8] = assay: Antihypertensive activity in conscious spontaneously hypertensive rat (SHR), percent change in heart rate (beats/min) after 1 hr at 3 mg/kg peroral dose; format: functional; settings: route oral
Thromboxane-A synthase = target: T2, Thromboxane-A synthase (Homo sapiens, UniProt P24557); assay: Compound was evaluated for the inhibition of human blood platelet thromboxane A2 synthase
T2 sequence (P24557 whole entry): T1 sequence (whole entry)

Rattus norvegicus [9] = assay: Antihypertensive activity in conscious spontaneously hypertensive rat (SHR), percent change in heart rate (beats/min) after 1 hr at 10 mg/kg peroral dose; format: functional; settings: route oral
Rattus norvegicus [10] = assay: Antihypertensive activity in conscious spontaneously hypertensive rat (SHR), percent change in Systolic blood pressure (SBP) at 10 mg/kg peroral dose after 1 hr; format: functional; settings: route oral
Rattus norvegicus [11] = assay: Antihypertensive activity in conscious spontaneously hypertensive rat (SHR), percent change in Systolic blood pressure (SBP) at 0.3 mg/kg peroral dose after 4 hr; format: functional; settings: route oral
Rattus norvegicus [12] = assay: Antihypertensive activity in conscious spontaneously hypertensive rat (SHR), percent change in Systolic blood pressure (SBP) at 1 mg/kg peroral dose after 8 hr; format: functional; settings: route oral
Rattus norvegicus [13] = assay: Antihypertensive activity in conscious spontaneously hypertensive rat (SHR), percent change in heart rate (beats/min) after 2 hr; format: functional
Rattus norvegicus [14] = assay: Antihypertensive activity in conscious spontaneously hypertensive rat (SHR), percent change in heart rate (beats/min) after 12 hr at 10 mg/kg peroral dose; format: functional; settings: route oral
Mus musculus [15] = assay: Protection against mortality in pulmonary thromboembolism model in mice at 3 mg/kg; format: functional
Homo sapiens [16] = organism: Homo sapiens; assay: Inhibition of [14C]arachidonic acid induced platelet aggregation at 50 uM (Control 6-keto-PGF1-alpha = 1.45+/-0.6); format: functional
Rattus norvegicus [17] = assay: Antihypertensive activity in conscious spontaneously hypertensive rat (SHR), percent change in Systolic blood pressure (SBP) at 10 mg/kg peroral dose; format: functional; settings: route oral
Mus musculus [18] = assay: Protection against mortality in pulmonary thromboembolism model in mice at 10 mg/kg; format: functional
Homo sapiens [19] = organism: Homo sapiens; assay: Inhibition of [14C]arachidonic acid induced platelet aggregation at 50 uM (Control TXB2 = 14.9+/-2.5); format: functional
Mus musculus [20] = assay: Protection against mortality in pulmonary thromboembolism model in mice at 1 mg/kg; format: functional
Rattus norvegicus [21] = assay: Antihypertensive activity in conscious spontaneously hypertensive rat (SHR), percent change in heart rate (beats/min) after 2 hr at 0.3 mg/kg peroral dose; format: functional; settings: route oral
Homo sapiens [22] = organism: Homo sapiens; assay: Inhibition of ADP-induced aggregation of human PRP in the absence of pig aortal microsomes (PAM); format: functional

## O=C1CCc2cc(/C=C/n3ccnc3)ccc2N1
Rattus norvegicus [1]
  Change in heart rate: -8%
Rattus norvegicus [2]
  Change in systolic BP: -54%
Rattus norvegicus [3]
  Change in heart rate: -5%
[4]
  inhibition: 97%
Rattus norvegicus [5]
  inhibition in vivo at 50 mg/kg: 95.9%
Mus musculus [6]
  survival at 10 mg/kg: 60%
Rattus norvegicus [7]
  Change in heart rate: 8%
Rattus norvegicus [8]
  Change in heart rate: 28%
Thromboxane-A synthase
  IC50: 1.2 µM
Rattus norvegicus [9]
  Change in heart rate: 22%
Rattus norvegicus [10]
  Change in systolic BP: -56%
Rattus norvegicus [11]
  Change in systolic BP: -28%
Rattus norvegicus [12]
  Change in systolic BP: -9%
Rattus norvegicus [13]
  Change in heart rate: 11%
Rattus norvegicus [14]
  Change in heart rate: 29%
Mus musculus [15]
  survival at 3 mg/kg: 20%
Homo sapiens [16]
  6-keto-PGF1α level at 50 µM: 11.5%
Rattus norvegicus [17]
  Change in systolic BP: -35%
Mus musculus [18]
  survival at 10 mg/kg: 90%
Homo sapiens [19]
  inhibition at 50 µM: 8%
Mus musculus [20]
  survival at 1 mg/kg: 10%
Rattus norvegicus [21]
  Change in heart rate: -13%
Homo sapiens [22]
  IC50: 5.6 µM
